Measurements taken from patent US11477982B2, “2-amino-5-oxyalkyl-pyrimidine derivatives and their use for controlling undesired plant growth” (Bayer CropScience Aktiengesellschaft, priority 2017, dated 2022).

How the values were obtained:
Type in all cases: in vivo
[1] = tested on: ALOMY: Alopecurus myosuroides; experiment: Pre-emergence herbicidal effect; details: for Herbicidal action against ALOMY: pre-emergence; for Herbicidal efficacy against ALOMY: Table 4b, pre-emergence as titled, dosage 80 g of a.i./ha
Description: (§1) 1. Pre-Emergence Herbicidal Effect and Crop Plant Compatibility
(§2) Seeds of monocotyledonous and dicotyledonous weed plants and crop plants are placed in plastic or wood fiber pots and covered with soil. The compounds of the invention, formulated in the form of wettable powders (WP) or as emulsion concentrates (EC), are then applied onto the surface of the covering soil as aqueous suspension or emulsion with addition of 0.5% additive at a water application rate of 600 l/ha (converted).
(§3) After the treatment, the pots are placed in a greenhouse and kept under good growth conditions for the trial plants. After about 3 weeks, the effect of the preparations is scored visually in comparison with untreated controls as percentages. For example, 100% activity=the plants have died, 0% activity=like control plants.

VIOTR: Viola tricolor = experiment: Pre-emergence herbicidal effect; details: dosage 320 g/ha
Description: as §1, §2, §3

SETVI: Setaria viridis = experiment: Pre-emergence herbicidal effect; details: for Herbicidal action against SETVI: pre-emergence; for Herbicidal efficacy against SETVI: Table 4b, pre-emergence as titled, dosage 80 g of a.i./ha
Description: as §1, §2, §3

[2] = tested on: ECHCG: Echinochloa crus-galli; experiment: Pre-emergence herbicidal effect; details: for Herbicidal action against ECHCG: pre-emergence; for Herbicidal efficacy against ECHCG: Table 4b, pre-emergence as titled, dosage 80 g of a.i./ha
Description: as §1, §2, §3

VERPE: Veronica persica = experiment: Pre-emergence herbicidal effect; details: dosage 320 g/ha
Description: as §1, §2, §3

[3] = tested on: ABUTH: Abutilon theophrasti; experiment: Pre-emergence herbicidal effect
Description: as §1, §2, §3

HORMU: Hordeum murinum = experiment: Pre-emergence herbicidal effect; details: for Herbicidal action against HORMU: pre-emergence, dosage 320 g/ha; for Herbicidal efficacy against HORMU: Table 4b, pre-emergence as titled, dosage 80 g of a.i./ha
Description: as §1, §2, §3

STEME: Stellaria media [4] = experiment: Pre-emergence herbicidal effect; details: for Herbicidal action against STEME: pre-emergence, dosage 320 g/ha; for Herbicidal efficacy against STEME: Table 4b, pre-emergence as titled, dosage 80 g of a.i./ha
Description: as §1, §2, §3

[5] = tested on: POLCO: Polygonum convolvulus; experiment: Pre-emergence herbicidal effect; details: dosage 320 g/ha
Description: as §1, §2, §3

[6] = tested on: MATIN: Matricaria inodora; experiment: Pre-emergence herbicidal effect; details: for Herbicidal action against MATIN: pre-emergence, dosage 320 g/ha; for Herbicidal efficacy against MATIN: Table 4b, pre-emergence as titled, dosage 80 g of a.i./ha
Description: as §1, §2, §3

AVEFA: Avena fatua = experiment: Pre-emergence herbicidal effect
Description: as §1, §2, §3

LOLRI: Lolium rigidum = experiment: Pre-emergence herbicidal effect
Description: as §1, §2, §3

PHBPU: Ipomoea purpurea = experiment: Pre-emergence herbicidal effect; details: dosage 320 g/ha
Description: as §1, §2, §3

[7] = tested on: AMARE: Amaranthus retroflexus; experiment: Pre-emergence herbicidal effect; details: for Herbicidal action against AMARE: pre-emergence, dosage 320 g/ha; for Herbicidal efficacy against AMARE: Table 4b, pre-emergence as titled, dosage 80 g of a.i./ha
Description: as §1, §2, §3

[8] = tested on: ECHCG: Echinochloa crus-galli; experiment: Post-emergence herbicidal effect; details: dosage 320 g/ha
Procedure: (§4) 2. Post-Emergence Herbicidal Effect and Crop Plant Compatibility
(§5) Seeds of monocotyledonous and dicotyledonous weeds and crop plants are placed in sandy loam in plastic or wood-fiber pots, covered with soil and cultivated in a greenhouse under controlled growth conditions, 2 to 3 weeks after sowing, the test plants are treated at the one-leaf stage. The compounds of the invention, formulated in the form of wettable powders (WP) or as emulsion concentrates (EC), are then sprayed onto the green parts of the plants as aqueous suspension or emulsion with addition of 0.5% additive at a water application rate of 600 l/ha (converted). After the test plants had been kept in the greenhouse under optimum growth conditions for about 3 weeks, the activity of the preparations is rated visually in comparison to untreated controls. For example, 100% activity=the plants have died, 0% activity=like control plants.

[9] = tested on: ABUTH: Abutilon theophrasti; experiment: Post-emergence herbicidal effect; details: dosage 320 g/ha
Procedure: as §4, §5

STEME: Stellaria media [10] = experiment: Post-emergence herbicidal effect; details: dosage 320 g/ha
Procedure: as §4, §5

[11] = tested on: AMARE: Amaranthus retroflexus; experiment: Post-emergence herbicidal effect; details: dosage 320 g/ha
Procedure: as §4, §5

Compound	Herbicidal action against ALOMY ([1]; dosage 320 g/ha)	Herbicidal action against VIOTR (VIOTR: Viola tricolor)	Herbicidal action against SETVI (SETVI: Setaria viridis; dosage 320 g/ha)	Herbicidal action against ECHCG ([2]; dosage 320 g/ha)	Herbicidal action against VERPE (VERPE: Veronica persica)	Herbicidal action against ABUTH ([3]; dosage 320 g/ha)	Herbicidal action against HORMU (HORMU: Hordeum murinum)	Herbicidal action against STEME (STEME: Stellaria media [4])	Herbicidal action against POLCO [5]	Herbicidal action against MATIN [6]	Herbicidal action against AVEFA (AVEFA: Avena fatua; dosage 320 g/ha)	Herbicidal action against LOLRI (LOLRI: Lolium rigidum; dosage 320 g/ha)	Herbicidal action against PHBPU (PHBPU: Ipomoea purpurea)	Herbicidal action against AMARE [7]	Herbicidal action against ECHCG [8]	Herbicidal action against ABUTH [9]	Herbicidal action against STEME (STEME: Stellaria media [10])	Herbicidal action against AMARE [11]	further results
Cc1nc(NC2c3ccccc3CC2C)ncc1C(C)(C)O (mixture of isomers) [Example 1.51]	100%	100%	100%	100%	100%	100%	90%	100%	100%	100%	80%	100%	100%	100%					
Cc1ccc2c(c1)[C@H](Nc1ncc(C(C)O)c(C)n1)CC2 (stereo partly drawn) [Example 1.13]	100%	100%	100%	100%	100%	100%	100%	100%	100%	100%	100%	100%	100%	100%	100%	80%	90%	90%	
Cc1ccc2c(c1)[C@H](Nc1ncc(C(C)(C)O)c(C(F)F)n1)[C@@H](C)C2 [Example 1.17]	100%	100%	100%	100%	100%	100%	100%	100%	100%	100%	100%	100%	80%	100%	80%	90%	100%	80%	
Cc1ccc2c(c1)[C@H](Nc1ncc(C(C)(O)C3CC3)cn1)[C@@H](C)C2 (stereo partly drawn) [Example 1.20]	100%	100%	100%	100%	100%	100%	100%	100%	100%	100%	100%	100%	100%	100%	100%	90%	100%	90%	
Cc1ccc2c(c1)[C@H](Nc1ncc(C(C)(C)O)c(C(C)F)n1)[C@@H](C)C2 (stereo partly drawn) [Example 1.23]	100%	100%	100%	100%	100%	100%	80%	100%	100%	100%	100%	100%	100%	100%					
Cc1ccc2c(c1)[C@H](Nc1ncc(C(C)(C)O)c(C)n1)CCO2 [Example 1.53]	100%	100%	100%	100%	100%	100%	100%	100%	100%	100%	100%	90%	100%	100%	100%	90%	90%	90%	
Cc1ccc2c(c1)[C@H](Nc1ncc(C(C)(C)O)c(N)n1)[C@@H](C)C2 [drawing 4, reference compound]	60%					60%					10 10%								Herbicidal action against ALOMY ([1]; dosage 80 g/ha): 30%; Herbicidal action against SETVI (SETVI: Setaria viridis; dosage 80 g/ha): 30%; Herbicidal action against ECHCG ([2]; dosage 80 g/ha): 30%; Herbicidal action against ABUTH ([3]; dosage 80 g/ha): 20%; Herbicidal action against AVEFA (AVEFA: Avena fatua; dosage 80 g/ha): 10 10%; Herbicidal action against LOLRI (LOLRI: Lolium rigidum; dosage 80 g/ha): 40%
Cc1cc2c(s1)CCCC2Nc1ncc(C(C)(C)O)c(C)n1 (stereo not drawn) [drawing 18, reference compound]																			Herbicidal efficacy against ALOMY [1]: 20; Herbicidal efficacy against SETVI (SETVI: Setaria viridis): 20; Herbicidal efficacy against ECHCG [2]: 30; Herbicidal efficacy against HORMU (HORMU: Hordeum murinum): 10; Herbicidal efficacy against STEME (STEME: Stellaria media [4]): 30; Herbicidal efficacy against MATIN [6]: 20; Herbicidal efficacy against AMARE [7]: 20
Cc1cc2c(s1)CCCC2Nc1ncc(C(C)O)c(C)n1 (stereo not drawn) [drawing 19, reference compound]																			Herbicidal efficacy against ALOMY [1]: 10; Herbicidal efficacy against SETVI (SETVI: Setaria viridis): 20; Herbicidal efficacy against ECHCG [2]: 40; Herbicidal efficacy against HORMU (HORMU: Hordeum murinum): 0; Herbicidal efficacy against STEME (STEME: Stellaria media [4]): 20; Herbicidal efficacy against MATIN [6]: 20; Herbicidal efficacy against AMARE [7]: 30
